# Source: patent US20230220021A1, “CYCLIC PEPTIDE INHIBITORS OF PSD-95 AND USES THEREOF” (University of Copenhagen, priority 2020, published 2023)
# Where a SMILES comes first, the peptide text is derived from it. [ ]: non-standard residue; d: D form.
# Experiments:
# PSD-95-PDZ2 [1] = biological target: T1, PSD-95-PDZ2 (Homo sapiens, UniProt P78352); experiment: Fluorescence polarization (FP) competition assay against cyclic nNOS TAMRA probe; assay type: binding; conditions: for Relative Ki (Ki mut/Ki WT): FP inhibition constant normalized to WT value
# T1 construct: 7xHis (N); made in house; host or cells: Escherichia coli B21 pLys (for the mutants, 'as previously described')
# PSD-95-PDZ2 [2] = biological target: T2, PSD-95-PDZ2 (Homo sapiens, UniProt P78352, V178C); experiment: SPOT peptide array screening with TAMRA labelled PSD-95-PDZ2; assay type: binding; conditions: SPOT array, TAMRA labelled PSD-95-PDZ2-V178C, normalized to WT
# T2 construct: screened with the TAMRA labelled PSD-95-PDZ2-V178C domain; 7xHis (N); made in house
# Protocol: SPOT peptide array synthesis. To generate the cyclic nNOSβ-hairpin arrays, we used the Intavis MultiPep spotter (Intavis Bioanalytical instruments). The membranes employed in this assay were SynthoPlan APEG CE (standard amino-modified acid stable sellulose membrane with a PEG-spacer), 10×15 cm with a loading of 400 nmol cm^−2. Solutions of 0.3 M Fmoc-AA-OH and 0.3 M Oxyma Pure were prepared in N-methyl-2-pyrrolidone (NMP). The activator solution consisted of 0.3 M DIC and 0.3 M of 2,4,6-trimethylpyridine (Collidine) in NMP. The capping solution consisted of a solution of 1 M acetic anhydride and 0.05 M of 4-dimethylaminopyridine (DMAP) in NMP. The deprotection solution consisted of 20% piperidine in NMP. AA couplings were performed 1 h,4 times. Deprotection of the Fmoc groups was performed 15min,2 times. Membrane washing between couplings or deprotections was performed with NMP and ethanol. Elongation of peptides in cellulose membrane was started by coupling first the Fmoc-PEG(9)-OH (Iris Biotech) and the subsequent mixture of Fmoc-Gly-OH (25%) and Boc-Gly-OH (75%) to lower the total loading of the membrane. Afterwards, the resin was capped with the capping solution and extensively washed and soaked in bromophenol blue (BPB) as a quality control to reveal the SPOTS with a functional amino group. Then, we coupled the quasi-orthogonal group Fmoc-Glu-PP, and carried out the rest of the synthesis until peptide completion. The cellulose bound linear peptides were finally treated with a solution of 95% DCM, 3% TIPS and 2% TFA 3 times, 20 min. to remove the quasi-orthogonal group. Afterwards, the membrane was washed 5 times with DCM and neutralized with 5% DIPEA in DCM. The membrane was then washed 5 more times with DCM, 5 times with NMP and cyclized with 0.3M PyAOP and 0.3M of DIPEA in DMF for 3 h or overnight. Finally, the membrane was dried with DCM and the side-chain protecting groups were cleaved with the standard deprotection cocktail (95% TFA, 2.5% H2O and 2.5% TIPS) or with reagent K [TFA 82.5%, phenol 5%, H2O 5%, thioanisole 5% and 1,2-ethanedithiol (EDT) 2.5%] for 3 h.
# SPOT membrane screening. Membranes were incubated with PBS pH 7.2+0.5% bovine serum albumin (BSA) for 1 h. After the incubation period, the membrane was dried and scanned with an Amershan Typhoon scanner, at 400V, Cy3 wavelength (532 nm). A TIF file of the screening and a file with the blank values were generated using the Image Quant software. Afterwards, a solution of 50 nM of TAMRA labelled PSD-95-PDZ2 domain was prepared in PBS pH 7.2+0.5% BSA and was added to the membrane. The membrane was left incubating in a Polymax 1040 rocking table for 1 h protected from the light. Passed the incubation time, the excess of labelled protein was removed by washing the membrane 3 times with PBS+0.5% BSA. Finally, the membrane fluorescence values were measured with the Amershan Typhoon scanner at 400V, Cy3 wavelength (532 nm). Using the Image Quant software, the TIF image of the screening and a file with the fluorescence values of the peptides with the TAMRA labelled PSD-95-PDZ2 were generated. The blank was then subtracted from the fluorescence values of the peptides screened against the TAMRA labelled PSD-95-PDZ2.
# A deep mutational scan was performed on the WT scaffold, exchanging each AA to the remaining 19 L-AAs. Each array contained three copies of the individual peptides as technical replicates. Additionally, three controls were included in the design: the cyclic nNOS β-hairpin WT control (positive control), a linear nNOS peptide (cyclization control) and a cyclic nNOS β-hairpin with a F111V substitution (negative control previously tested in FP competition assays). For array screening, a mutation in PSD-95-PDZ2 residue V178 (PSD-95-PDZ2-V178C) was introduced, which was subsequently labelled with TAMRA maleimide. […]
Compound,Relative Ki (Ki mut/Ki WT) (PSD-95-PDZ2 [1]),Normalized SPOT fluorescence (Mut/WT) (PSD-95-PDZ2 [2]),"Ki (PSD-95-PDZ2 [1]; FP competition, cyclic nNOS TAMRA probe, mean of triplicates, N.B. = not binding, read-out: Ki) [nM]"
CC[C@H](C)[C@@H]1NC(=O)[C@H]([C@@H](C)O)NC(=O)[C@H](CCCCN)NC(=O)[C@@H]2CCCN2C(=O)[C@H]([C@@H](C)O)NC(=O)CNC(=O)[C@H](CC(=O)O)NC(=O)CNC(=O)[C@H]([C@@H](C)O)NC(=O)[C@H](Cc2ccccc2)NC(=O)[C@H]([C@@H](C)O)NC(=O)[C@H]([C@@H](C)O)NC(=O)[C@H](CCC(=O)O)NC(=O)[C@H](CC(C)C)NC(=O)[C@H](Cc2c[nH]cn2)NC(=O)[C@H]([C@@H](C)O)NC(=O)[C@H](CCC(N)=O)NC(=O)CNC(=O)[C@H]2CCCN2C(=O)[C@H](CCCNC(=N)N)NC(=O)[C@H](CCCNC(=N)N)NC(=O)[C@H](C(C)C)NC(=O)[C@H](CCCNC(=N)N)NC1=O [compound 45] (cyclo(THLETTFTGDGTPKTIRVRR[dP]GQ)),1.31,3.50,–
CC[C@H](C)[C@@H]1NC(=O)[C@H]([C@@H](C)O)NC(=O)[C@H](CCCCN)NC(=O)[C@@H]2CCCN2C(=O)[C@H]([C@@H](C)O)NC(=O)CNC(=O)[C@H](CC(=O)O)NC(=O)CNC(=O)[C@H]([C@@H](C)O)NC(=O)[C@H](Cc2ccccc2)NC(=O)[C@H](C)NC(=O)[C@H]([C@@H](C)O)NC(=O)[C@H](CCC(=O)O)NC(=O)[C@H](CC(C)C)NC(=O)[C@H](Cc2c[nH]cn2)NC(=O)[C@H]([C@@H](C)O)NC(=O)[C@H](CCC(N)=O)NC(=O)CNC(=O)[C@H]2CCCN2C(=O)[C@H](CCC(N)=O)NC(=O)[C@H]([C@@H](C)O)NC(=O)[C@H](C(C)C)NC(=O)[C@H](CCCNC(=N)N)NC1=O [compound 60] (cyclo(THLETAFTGDGTPKTIRVTQ[dP]GQ)),2.62,0.66,–
CC[C@H](C)[C@@H]1NC(=O)[C@H]([C@@H](C)O)NC(=O)[C@H](CCCCN)NC(=O)[C@@H]2CCCN2C(=O)[C@H]([C@@H](C)O)NC(=O)CNC(=O)[C@H](CC(=O)O)NC(=O)CNC(=O)[C@H]([C@@H](C)O)NC(=O)[C@H](Cc2ccccc2)NC(=O)[C@H]([C@@H](C)O)NC(=O)[C@H]([C@@H](C)O)NC(=O)[C@H](CCC(=O)O)NC(=O)[C@H](CC(C)C)NC(=O)[C@H](Cc2c[nH]cn2)NC(=O)[C@H](C)NC(=O)[C@H](CCC(N)=O)NC(=O)CNC(=O)[C@H]2CCCN2C(=O)[C@H](CCC(N)=O)NC(=O)[C@H]([C@@H](C)O)NC(=O)[C@H](C(C)C)NC(=O)[C@H](CCCNC(=N)N)NC1=O [compound 55] (cyclo(AHLETTFTGDGTPKTIRVTQ[dP]GQ)),1.00,0.97,1500
CC[C@H](C)[C@@H]1NC(=O)[C@H]([C@@H](C)O)NC(=O)[C@H](CCCCN)NC(=O)[C@@H]2CCCN2C(=O)[C@H]([C@@H](C)O)NC(=O)CNC(=O)[C@H](CC(=O)O)NC(=O)CNC(=O)[C@H]([C@@H](C)O)NC(=O)[C@H](Cc2ccccc2)NC(=O)[C@H]([C@@H](C)O)NC(=O)[C@H]([C@@H](C)O)NC(=O)[C@H](CCC(=O)O)NC(=O)[C@H](CC(C)C)NC(=O)[C@H](Cc2c[nH]cn2)NC(=O)[C@H]([C@@H](C)O)NC(=O)[C@H](CCC(N)=O)NC(=O)CNC(=O)[C@H]2CCCN2C(=O)[C@H](C)NC(=O)[C@H]([C@@H](C)O)NC(=O)[C@H](C(C)C)NC(=O)[C@H](CCCNC(=N)N)NC1=O [compound 74] (cyclo(THLETTFTGDGTPKTIRVTA[dP]GQ)),1.01,0.42,–
